Earlier results in patent US6548045B2, “Nitroimidazole substituted porphyrin complex” (Photochemical Co., Ltd., priority 1999, dated 2003).

Legend:
[1] = tested on: anoxic tissues in tumor; conditions: animal experiment implanting tumor
[2] = tested on: anoxic tissues in tumor; conditions: in vivo
[3] = in vivo

COCC(O)Cn1ccnc1[N+](=O)[O-] (stereo not drawn) [Misonidazole]
efficacy compared with absence of the compound [1]: twice times more efficacies
efficacy in the human being [2]: no efficacy is observed
neurotoxicity [3]: high neurotoxin
